Measurements from PubChem BioAssay (NCI).
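Grown in 96-well plates, cells were treated for 48 hours with each compound at five concentrations. Insufficient inhibition: endpoint recorded as highest concentration tested. At the GI50, growth is halved. At the TGI there is no net growth.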

What was measured:
Assay in all cases: NCI tumour cell line growth inhibition, 48 h
ACHN renal = system: ACHN renal
HCT-15 colon = system: HCT-15 colon
NCI/ADR-RES ovarian = system: NCI/ADR-RES ovarian
UO-31 renal = system: UO-31 renal
786-0 renal = system: 786-0 renal
A498 renal = system: A498 renal
A549 NSCLC = system: A549 NSCLC
BT-549 breast = system: BT-549 breast
CCRF-CEM leukemia = system: CCRF-CEM leukemia
COLO 205 colon = system: COLO 205 colon
EKVX NSCLC = system: EKVX NSCLC
HCC-2998 colon = system: HCC-2998 colon
HCT-116 colon = system: HCT-116 colon
HL-60(TB) leukemia = system: HL-60(TB) leukemia
HOP-62 NSCLC = system: HOP-62 NSCLC
HOP-92 NSCLC = system: HOP-92 NSCLC
HT29 colon = system: HT29 colon
IGROV1 ovarian = system: IGROV1 ovarian
K-562 leukemia = system: K-562 leukemia
KM12 colon = system: KM12 colon
LOX IMVI melanoma = system: LOX IMVI melanoma
M14 melanoma = system: M14 melanoma
MALME-3M melanoma = system: MALME-3M melanoma
MCF7 breast = system: MCF7 breast
MDA-MB-231 breast = system: MDA-MB-231 breast
MDA-MB-435 = system: MDA-MB-435
MOLT-4 leukemia = system: MOLT-4 leukemia
NCI-H226 lung = system: NCI-H226 lung
NCI-H23 lung = system: NCI-H23 lung
NCI-H460 lung = system: NCI-H460 lung
NCI-H522 lung = system: NCI-H522 lung
OVCAR-3 ovarian = system: OVCAR-3 ovarian
OVCAR-4 ovarian = system: OVCAR-4 ovarian
OVCAR-5 ovarian = system: OVCAR-5 ovarian
OVCAR-8 ovarian = system: OVCAR-8 ovarian
PC-3 prostate = system: PC-3 prostate
RPMI-8226 leukemia = system: RPMI-8226 leukemia
RXF 393 renal = system: RXF 393 renal
SF-268 CNS = system: SF-268 CNS
SF-295 CNS = system: SF-295 CNS
SF-539 CNS = system: SF-539 CNS
SK-MEL-2 melanoma = system: SK-MEL-2 melanoma
SK-MEL-28 melanoma = system: SK-MEL-28 melanoma
SK-MEL-5 melanoma = system: SK-MEL-5 melanoma
SK-OV-3 ovarian = system: SK-OV-3 ovarian
SN12C renal = system: SN12C renal
SNB-19 CNS = system: SNB-19 CNS
SNB-75 CNS = system: SNB-75 CNS
SR leukemia = system: SR leukemia
SW-620 colon = system: SW-620 colon
T-47D breast = system: T-47D breast
TK-10 renal = system: TK-10 renal
U251 CNS = system: U251 CNS
UACC-257 melanoma = system: UACC-257 melanoma
UACC-62 melanoma = system: UACC-62 melanoma

Structure (SMILES): COc1cc2c(Nc3ccc(NC(=O)Nc4ccc(Cl)c(C(F)(F)F)c4)c(Cl)c3)ncnc2cc1OCCCN1CCN(C)CC1
- GI50 (ACHN renal): 2240 nM
- TGI (ACHN renal): > 100000 nM
- GI50 (HCT-15 colon): 3900 nM
- TGI (HCT-15 colon): > 100000 nM
- GI50 (NCI/ADR-RES ovarian): 54400 nM
- TGI (NCI/ADR-RES ovarian): > 100000 nM
- GI50 (UO-31 renal): > 100000 nM
- TGI (UO-31 renal): > 100000 nM

Structure (SMILES): CCN1CCN(c2nc(C)cc(N(CCCNc3ccnc4cc(Cl)ccc34)Cc3ccc4c(c3)OCO4)n2)CC1
- GI50 (786-0 renal): 1460 nM
- TGI (786-0 renal): 2950 nM
- GI50 (A498 renal): 1380 nM
- TGI (A498 renal): 4230 nM
- GI50 (A549 NSCLC): 1970 nM
- TGI (A549 NSCLC): 7420 nM
- GI50 (ACHN renal): 2030 nM
- TGI (ACHN renal): 4150 nM
- GI50 (BT-549 breast): 1780 nM
- TGI (BT-549 breast): 3700 nM
- GI50 (CCRF-CEM leukemia): 1810 nM
- TGI (CCRF-CEM leukemia): 7140 nM
- GI50 (COLO 205 colon): 1700 nM
- TGI (COLO 205 colon): 3460 nM
- GI50 (EKVX NSCLC): 2600 nM
- TGI (EKVX NSCLC): 10900 nM
- GI50 (HCC-2998 colon): 1620 nM
- TGI (HCC-2998 colon): 3850 nM
- GI50 (HCT-116 colon): 1100 nM
- TGI (HCT-116 colon): 3020 nM
- GI50 (HCT-15 colon): 1070 nM
- TGI (HCT-15 colon): 3160 nM
- GI50 (HL-60(TB) leukemia): 2110 nM
- TGI (HL-60(TB) leukemia): 3960 nM
- GI50 (HOP-62 NSCLC): 1460 nM
- TGI (HOP-62 NSCLC): 4090 nM
- GI50 (HOP-92 NSCLC): 1150 nM
- TGI (HOP-92 NSCLC): 3100 nM
- GI50 (HT29 colon): 1070 nM
- TGI (HT29 colon): 2640 nM
- GI50 (IGROV1 ovarian): 1610 nM
- TGI (IGROV1 ovarian): 5060 nM
- GI50 (K-562 leukemia): 361 nM
- TGI (K-562 leukemia): 1510 nM
- GI50 (KM12 colon): 2420 nM
- TGI (KM12 colon): 10800 nM
- GI50 (LOX IMVI melanoma): 1620 nM
- TGI (LOX IMVI melanoma): 3180 nM
- GI50 (M14 melanoma): 1800 nM
- TGI (M14 melanoma): 3380 nM
- GI50 (MALME-3M melanoma): 1770 nM
- TGI (MALME-3M melanoma): 3340 nM
- GI50 (MCF7 breast): 1580 nM
- TGI (MCF7 breast): 10200 nM
- GI50 (MDA-MB-231 breast): 1200 nM
- TGI (MDA-MB-231 breast): 2900 nM
- GI50 (MDA-MB-435): 1560 nM
- TGI (MDA-MB-435): 3060 nM
- GI50 (MOLT-4 leukemia): 1200 nM
- TGI (MOLT-4 leukemia): 4350 nM
- GI50 (NCI-H226 lung): 5360 nM
- TGI (NCI-H226 lung): 24400 nM
- GI50 (NCI-H23 lung): 2610 nM
- TGI (NCI-H23 lung): 10100 nM
- GI50 (NCI-H460 lung): 1530 nM
- TGI (NCI-H460 lung): 3540 nM
- GI50 (NCI-H522 lung): 1660 nM
- TGI (NCI-H522 lung): 3390 nM
- GI50 (NCI/ADR-RES ovarian): 2630 nM
- TGI (NCI/ADR-RES ovarian): 10100 nM
- GI50 (OVCAR-3 ovarian): 1610 nM
- TGI (OVCAR-3 ovarian): 3960 nM
- GI50 (OVCAR-4 ovarian): 1750 nM
- TGI (OVCAR-4 ovarian): 7120 nM
- GI50 (OVCAR-5 ovarian): 2570 nM
- TGI (OVCAR-5 ovarian): 7770 nM
- GI50 (OVCAR-8 ovarian): 2120 nM
- TGI (OVCAR-8 ovarian): 6060 nM
- GI50 (PC-3 prostate): 2430 nM
- TGI (PC-3 prostate): 11000 nM
- GI50 (RPMI-8226 leukemia): 794 nM
- TGI (RPMI-8226 leukemia): 3020 nM
- GI50 (RXF 393 renal): 1540 nM
- TGI (RXF 393 renal): 3120 nM
- GI50 (SF-268 CNS): 1620 nM
- TGI (SF-268 CNS): 4060 nM
- GI50 (SF-295 CNS): 1810 nM
- TGI (SF-295 CNS): 3390 nM
- GI50 (SF-539 CNS): 1630 nM
- TGI (SF-539 CNS): 3070 nM
- GI50 (SK-MEL-2 melanoma): 1830 nM
- TGI (SK-MEL-2 melanoma): 3500 nM
- GI50 (SK-MEL-28 melanoma): 1610 nM
- TGI (SK-MEL-28 melanoma): 3110 nM
- GI50 (SK-MEL-5 melanoma): 1660 nM
- TGI (SK-MEL-5 melanoma): 3050 nM
- GI50 (SK-OV-3 ovarian): 2580 nM
- TGI (SK-OV-3 ovarian): 6700 nM
- GI50 (SN12C renal): 2030 nM
- TGI (SN12C renal): 5550 nM
- GI50 (SNB-19 CNS): 2980 nM
- TGI (SNB-19 CNS): 11300 nM
- GI50 (SNB-75 CNS): 1480 nM
- TGI (SNB-75 CNS): 3100 nM
- GI50 (SR leukemia): 339 nM
- TGI (SR leukemia): 1580 nM
- GI50 (SW-620 colon): 1400 nM
- TGI (SW-620 colon): 3120 nM
- GI50 (T-47D breast): 2040 nM
- TGI (T-47D breast): 4530 nM
- GI50 (TK-10 renal): 1740 nM
- TGI (TK-10 renal): 3210 nM
- GI50 (U251 CNS): 1560 nM
- TGI (U251 CNS): 3170 nM
- GI50 (UACC-257 melanoma): 1800 nM
- TGI (UACC-257 melanoma): 3490 nM
- GI50 (UACC-62 melanoma): 1810 nM
- TGI (UACC-62 melanoma): 3320 nM
- GI50 (UO-31 renal): 1310 nM
- TGI (UO-31 renal): 2640 nM
